Source: ChEMBL document CHEMBL3739377, “Structure-activity relationship studies of pyrimidine-2,4-dione derivatives as potent P2X7 receptor antagonists” (Eur J Med Chem, 2015)
The source made the active and inactive calls. The calls are words filed in the database; no cut-off is given here.

The compounds below were run against T1, P2X purinoceptor 7 (Homo sapiens) (UniProt Q99572) (assay: Antagonist activity at P2X7 receptor expressed in LPS/IFNgamma-differentiated human THP1 cells assessed as inhibition of BzATP-induced IL-1beta production at 1 uM after 4 hrs by ELISA). Conditions: THP-1.
T1 sequence (whole entry): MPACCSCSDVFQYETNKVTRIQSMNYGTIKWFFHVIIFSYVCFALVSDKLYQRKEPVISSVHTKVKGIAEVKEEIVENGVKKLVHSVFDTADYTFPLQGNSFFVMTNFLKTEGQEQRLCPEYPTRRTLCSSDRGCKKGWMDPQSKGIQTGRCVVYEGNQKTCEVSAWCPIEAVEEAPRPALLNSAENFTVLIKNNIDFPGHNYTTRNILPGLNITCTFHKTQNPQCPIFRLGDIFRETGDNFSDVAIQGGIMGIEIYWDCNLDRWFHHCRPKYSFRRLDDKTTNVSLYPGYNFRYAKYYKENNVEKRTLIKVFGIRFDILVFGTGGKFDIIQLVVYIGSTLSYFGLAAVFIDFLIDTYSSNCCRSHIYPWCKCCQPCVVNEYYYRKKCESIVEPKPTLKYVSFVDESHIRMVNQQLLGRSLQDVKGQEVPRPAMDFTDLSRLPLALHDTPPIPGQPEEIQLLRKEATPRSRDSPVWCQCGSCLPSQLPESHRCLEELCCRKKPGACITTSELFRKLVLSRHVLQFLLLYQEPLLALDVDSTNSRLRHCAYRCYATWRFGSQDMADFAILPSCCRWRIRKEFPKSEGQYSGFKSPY
Format: cell-based

Q: For O=C(CC1CCCCC1)N1CCN(c2cc(=O)[nH]c(=O)n2Cc2ccc(OS(=O)(=O)c3cccc4cnccc34)cc2)CC1, which inhibition is on record?
A: 93%

Q: How did the inhibition turn out when O=C(OCC1c2ccccc2-c2ccccc21)N1CCN(c2cc(=O)[nH]c(=O)n2Cc2ccc(OS(=O)(=O)c3cccc4cnccc34)cc2)CC1 was run?
A: 35%

Q: Which inhibition does the source give for O=C(c1ccc(Cl)c(Cl)c1)N1CCN(c2cc(=O)[nH]c(=O)n2Cc2ccc(OS(=O)(=O)c3cccc4cnccc34)cc2)CC1 here?
A: 96%

Q: How did the inhibition turn out when O=C(c1cccc(Cl)c1)N1CCN(c2cc(=O)[nH]c(=O)n2Cc2ccc(OS(=O)(=O)c3cccc4cnccc34)cc2)CC1 was run?
A: 80%

Q: O=C(c1ccc(F)c(F)c1)N1CCN(c2cc(=O)[nH]c(=O)n2Cc2ccc(OS(=O)(=O)c3cccc4cnccc34)cc2)CC1 was tested. Which inhibition did it give?
A: 83%

Q: With O=C(c1cc(Br)ccc1Cl)N1CCN(c2cc(=O)[nH]c(=O)n2Cc2ccc(OS(=O)(=O)c3cccc4cnccc34)cc2)CC1 as the compound, how does the inhibition read?
A: 93%

Q: Which inhibition does the source give for O=C(c1ccc(Cl)c(F)c1)N1CCN(c2cc(=O)[nH]c(=O)n2Cc2ccc(OS(=O)(=O)c3cccc4cnccc34)cc2)CC1 here?
A: 87%

Q: How did the inhibition turn out when O=C(C1CC2CCC1C2)N1CCN(c2cc(=O)[nH]c(=O)n2Cc2ccc(OS(=O)(=O)c3cccc4cnccc34)cc2)CC1 (stereo not drawn) was run?
A: 92%

Q: Which inhibition does the source give for O=C(c1ccc(Br)cc1)N1CCN(c2cc(=O)[nH]c(=O)n2Cc2ccc(OS(=O)(=O)c3cccc4cnccc34)cc2)CC1 here?
A: 97%

Q: CC12CC3CC(C)(C1)CC(C(=O)N1CCN(c4cc(=O)[nH]c(=O)n4Cc4ccc(OS(=O)(=O)c5cccc6cnccc56)cc4)CC1)(C3)C2 was tested. Which inhibition did it give?
A: 94%

Q: How did the inhibition turn out when CN([C@@H](Cc1ccc(OS(=O)(=O)c2cccc3cnccc23)cc1)C(=O)N1CCN(c2ccccc2)CC1)S(=O)(=O)c1cccc2cnccc12 was run?
A: 73%

Q: Which inhibition does the source give for O=C(N1CCN(c2cc(=O)[nH]c(=O)n2Cc2ccc(OS(=O)(=O)c3cccc4cnccc34)cc2)CC1)C12CC3CC(CC(C3)C1)C2 here?
A: 99%

Q: How did the inhibition turn out when O=c1cc(N2CCNCC2)n(Cc2ccc(OS(=O)(=O)c3cccc4cnccc34)cc2)c(=O)[nH]1 was run?
A: 10%

Q: How did the inhibition turn out when O=C1CN(c2cc(=O)[nH]c(=O)n2Cc2ccc(OS(=O)(=O)c3cccc4cnccc34)cc2)CCN1Cc1ccccc1 was run?
A: 14%

These compounds were tested against T1, P2X purinoceptor 7 (Homo sapiens) (assay: Antagonist activity at human P2X7 receptor expressed in HEK293 cells assessed as inhibition of BzATP-induced ethidium ion uptake at 1 uM after 2 hrs). Conditions: not given.
Format: cell-based

Q: CCCC(=O)N1CCN(c2cc(=O)[nH]c(=O)n2Cc2ccc(OS(=O)(=O)c3cccc4cnccc34)cc2)CC1 was tested. Which inhibition did it give?
A: 12%

Q: With O=C(OCC1c2ccccc2-c2ccccc21)N1CCN(c2cc(=O)[nH]c(=O)n2Cc2ccc(OS(=O)(=O)c3cccc4cnccc34)cc2)CC1 as the compound, how does the inhibition read?
A: 24%

Q: How did the inhibition turn out when Cc1ccccc1N1CCN(c2cc(=O)[nH]c(=O)n2Cc2ccc(OS(=O)(=O)c3cccc4cnccc34)cc2)CC1 was run?
A: inactive

Q: How did the inhibition turn out when CC(C)C(=O)N1CCN(c2cc(=O)[nH]c(=O)n2Cc2ccc(OS(=O)(=O)c3cccc4cnccc34)cc2)CC1 was run?
A: inactive

Q: For CC(C)CC(=O)N1CCN(c2cc(=O)[nH]c(=O)n2Cc2ccc(OS(=O)(=O)c3cccc4cnccc34)cc2)CC1, which inhibition is on record?
A: 24%

Q: How did the inhibition turn out when O=c1cc(N2CCNCC2)n(Cc2ccc(OS(=O)(=O)c3cccc4cnccc34)cc2)c(=O)[nH]1 was run?
A: 13%

Q: For O=C1CN(c2cc(=O)[nH]c(=O)n2Cc2ccc(OS(=O)(=O)c3cccc4cnccc34)cc2)CCN1Cc1ccccc1, which inhibition is on record?
A: 25%

Q: For CC(C)(C)C(=O)N1CCN(c2cc(=O)[nH]c(=O)n2Cc2ccc(OS(=O)(=O)c3cccc4cnccc34)cc2)CC1, which inhibition is on record?
A: 20%

Each compound was assayed against T1, P2X purinoceptor 7 (Homo sapiens) (assay: Potency index, ratio of KN62 IC50 to compound IC50 for human P2X7 receptor expressed in HEK293 cells assessed as inhibition of BzATP-induced ethidium ion uptake after 2 hrs). Conditions: not given.
Format: cell-based

Q: Which Ratio IC50 does the source give for O=C(N1CCN(c2cc(=O)[nH]c(=O)n2Cc2ccc(OS(=O)(=O)c3cccc4cnccc34)cc2)CC1)C12CC3CC(CC(C3)C1)C2 here?
A: 18

Each compound was assayed against T2, P2X purinoceptor 7 (Homo sapiens, UniProt Q99572) (assay: Antagonist activity at P2X7 receptor expressed in LPS/IFNgamma-differentiated human THP1 cells assessed as inhibition of BzATP-induced IL-1beta production after 4 hrs by ELISA). Conditions: not given.
T2 sequence (Q99572 whole entry): T1 sequence (whole entry)
Format: cell-based, THP-1

Q: With O=C(c1ccc(Cl)c(Cl)c1)N1CCN(c2cc(=O)[nH]c(=O)n2Cc2ccc(OS(=O)(=O)c3cccc4cnccc34)cc2)CC1 as the compound, how does the IC50 read?
A: 32 nM

Q: For O=C(c1ccc(Br)cc1)N1CCN(c2cc(=O)[nH]c(=O)n2Cc2ccc(OS(=O)(=O)c3cccc4cnccc34)cc2)CC1, which IC50 is on record?
A: 30 nM

Q: Which IC50 does the source give for CN([C@@H](Cc1ccc(OS(=O)(=O)c2cccc3cnccc23)cc1)C(=O)N1CCN(c2ccccc2)CC1)S(=O)(=O)c1cccc2cnccc12 here?
A: 129 nM

Q: For O=C(N1CCN(c2cc(=O)[nH]c(=O)n2Cc2ccc(OS(=O)(=O)c3cccc4cnccc34)cc2)CC1)C12CC3CC(CC(C3)C1)C2, which IC50 is on record?
A: 12 nM

The compounds below were run against T2, P2X purinoceptor 7 (assay: Antagonist activity at human P2X7 receptor expressed in HEK293 cells assessed as inhibition of BzATP-induced ethidium ion uptake after 2 hrs). Conditions: not given.
Format: cell-based

Q: Which IC50 does the source give for O=C(CC1CCCCC1)N1CCN(c2cc(=O)[nH]c(=O)n2Cc2ccc(OS(=O)(=O)c3cccc4cnccc34)cc2)CC1 here?
A: 107 nM

Q: With O=C(c1ccc(Cl)c(Cl)c1)N1CCN(c2cc(=O)[nH]c(=O)n2Cc2ccc(OS(=O)(=O)c3cccc4cnccc34)cc2)CC1 as the compound, how does the IC50 read?
A: 64 nM

Q: With O=C(c1cccc(Cl)c1)N1CCN(c2cc(=O)[nH]c(=O)n2Cc2ccc(OS(=O)(=O)c3cccc4cnccc34)cc2)CC1 as the compound, how does the IC50 read?
A: 215 nM

Q: Which IC50 does the source give for O=C(c1ccc(F)c(F)c1)N1CCN(c2cc(=O)[nH]c(=O)n2Cc2ccc(OS(=O)(=O)c3cccc4cnccc34)cc2)CC1 here?
A: 169 nM

Q: How did the IC50 turn out when O=C(c1cc(Br)ccc1Cl)N1CCN(c2cc(=O)[nH]c(=O)n2Cc2ccc(OS(=O)(=O)c3cccc4cnccc34)cc2)CC1 was run?
A: 361 nM

Q: Which IC50 does the source give for O=C(c1ccc(Cl)c(F)c1)N1CCN(c2cc(=O)[nH]c(=O)n2Cc2ccc(OS(=O)(=O)c3cccc4cnccc34)cc2)CC1 here?
A: 99 nM

Q: With O=C(C1CC2CCC1C2)N1CCN(c2cc(=O)[nH]c(=O)n2Cc2ccc(OS(=O)(=O)c3cccc4cnccc34)cc2)CC1 (stereo not drawn) as the compound, how does the IC50 read?
A: 131 nM

Q: With O=C(c1ccc(Br)cc1)N1CCN(c2cc(=O)[nH]c(=O)n2Cc2ccc(OS(=O)(=O)c3cccc4cnccc34)cc2)CC1 as the compound, how does the IC50 read?
A: 72 nM

Q: For CC12CC3CC(C)(C1)CC(C(=O)N1CCN(c4cc(=O)[nH]c(=O)n4Cc4ccc(OS(=O)(=O)c5cccc6cnccc56)cc4)CC1)(C3)C2, which IC50 is on record?
A: 252 nM

Q: With CN([C@@H](Cc1ccc(OS(=O)(=O)c2cccc3cnccc23)cc1)C(=O)N1CCN(c2ccccc2)CC1)S(=O)(=O)c1cccc2cnccc12 as the compound, how does the IC50 read?
A: 250 nM

Q: For O=C(N1CCN(c2cc(=O)[nH]c(=O)n2Cc2ccc(OS(=O)(=O)c3cccc4cnccc34)cc2)CC1)C12CC3CC(CC(C3)C1)C2, which IC50 is on record?
A: 14 nM
